Literature values in US4020157A, “Shortened analogs of somatostatin” (Ayerst McKenna and Harrison Ltd., priority 1975, dated 1977).

Conditions: reported by D. Sarantakis et al.

In the case of “[Ala^3,14 ]-somatostatin (AGAKNFFWKTFTSA; Somatostatin-14; UniProt P61278 103-116, looked up, variant C3A C14A) [somatostatin analog synthesized by solid phase methods (Sarantakis et al.)]”, the “activity as % of the potency of somatostatin” value is given as “about 0.01%”.
